Experimental data reported in patent US8614201B2 (Janssen Pharmaceutica NV, priority 2009, dated 2013).

Target: Human TRPA1 (Homo sapiens, UniProt O75762)
Experiment: Alternative TRPA1 Ca2+ fluorometry assay (hTRPA1/TREx-HEK293 cells, Fluo-4, FDSS 6000)
Format: cell-based
Set-up: expressed in transfected cells
Conditions: Fluo-4-AM, agonist 6,11-dihydro-5H-dibenzo[b,e]azepine-10-carboxylic acid methyl ester 25 nM, procedure used for Examples 184, 190 to 192, 194 to 316
Procedure, shortened: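 Tetracycline-induced (50 ng/ml, 24 h) hTRPA1/TREx-HEK293 cells were loaded with Fluo-4-AM and probenecid. Compound (1% DMSO final) was added after a 12 s baseline and the Ca2+ signal followed for 14 min, then 25 nM TRPA1 agonist dibenzazepine carboxylic acid methyl ester was applied. Signal is Em540 (ex 488 nm) relative to the first baseline reading.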

Sequence of Human TRPA1 (O75762 whole entry): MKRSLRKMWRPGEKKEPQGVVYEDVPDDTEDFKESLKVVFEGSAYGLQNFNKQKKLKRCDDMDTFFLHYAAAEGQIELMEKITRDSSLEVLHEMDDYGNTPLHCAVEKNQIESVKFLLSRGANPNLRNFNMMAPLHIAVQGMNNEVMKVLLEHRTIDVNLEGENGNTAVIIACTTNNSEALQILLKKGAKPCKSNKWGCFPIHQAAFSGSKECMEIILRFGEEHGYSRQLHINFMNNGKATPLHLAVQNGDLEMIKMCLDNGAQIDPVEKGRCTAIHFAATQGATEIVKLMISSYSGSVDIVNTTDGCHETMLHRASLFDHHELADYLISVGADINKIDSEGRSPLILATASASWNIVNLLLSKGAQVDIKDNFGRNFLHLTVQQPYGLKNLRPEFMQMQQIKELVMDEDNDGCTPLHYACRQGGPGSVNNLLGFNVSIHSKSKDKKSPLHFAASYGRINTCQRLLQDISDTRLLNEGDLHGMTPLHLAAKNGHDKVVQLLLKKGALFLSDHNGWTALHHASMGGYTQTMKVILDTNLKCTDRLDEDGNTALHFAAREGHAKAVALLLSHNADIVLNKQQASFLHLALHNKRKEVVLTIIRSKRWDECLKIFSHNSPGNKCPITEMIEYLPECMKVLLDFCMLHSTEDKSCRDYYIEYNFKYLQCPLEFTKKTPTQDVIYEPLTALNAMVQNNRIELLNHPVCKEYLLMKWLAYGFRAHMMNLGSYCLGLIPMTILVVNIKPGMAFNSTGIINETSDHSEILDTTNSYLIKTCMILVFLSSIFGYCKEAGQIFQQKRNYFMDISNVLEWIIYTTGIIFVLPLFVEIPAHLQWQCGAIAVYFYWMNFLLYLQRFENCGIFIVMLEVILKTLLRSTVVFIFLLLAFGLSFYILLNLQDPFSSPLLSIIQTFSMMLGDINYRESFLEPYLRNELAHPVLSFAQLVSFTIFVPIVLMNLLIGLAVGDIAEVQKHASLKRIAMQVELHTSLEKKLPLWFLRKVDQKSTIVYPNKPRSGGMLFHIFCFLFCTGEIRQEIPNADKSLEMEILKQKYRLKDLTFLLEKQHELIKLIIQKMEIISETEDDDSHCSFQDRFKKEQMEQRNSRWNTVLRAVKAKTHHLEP

Row | SMILES | IC50 [nM]
1 | O=C(NCc1cc(-c2ccc(Br)cc2)nc(NCCO)n1)[C@@H]1CCCN1S(=O)(=O)c1ccc(F)cc1 [Example 293, 1-(4-Fluoro-benzenesulfonyl)-pyrrolidine-2S-carboxylic acid [6-(4-bromo-phenyl)-2-(2-hydroxy-ethylamino)-pyrimidin-4-ylmethyl]-amide] | 2690
2 | CN1CCCN(c2nc(CNC(=O)[C@@H]3CCCN3S(=O)(=O)c3ccc(F)cc3)cc(-c3ccc(Br)cc3)n2)CC1 [Example 218, 1-(4-Fluoro-benzenesulfonyl)-pyrrolidine-2S-carboxylic acid [6-(4-bromo-phenyl)-2-(4-methyl-[1,4]diazepan-1-yl)-pyrimidin-4-ylmethyl]-amide] | > 10000
3 | O=C(NCc1cc(-c2ccccc2)nc(N2CCN(c3ccccc3F)CC2)n1)[C@@H]1CCCN1S(=O)(=O)c1ccc(F)cc1 [Example 251, 1-(4-Fluoro-benzenesulfonyl)-pyrrolidine-2S-carboxylic acid {2-[4-(2-fluoro-phenyl)-piperazin-1-yl]-6-phenyl-pyrimidin-4-ylmethyl}-amide] | 2510
4 | O=C(NCc1cc(-c2ccc3c(c2)OCO3)nc(Nc2ccc(Cl)cc2)n1)[C@@H]1CCCN1S(=O)(=O)c1ccc(F)cc1 [Example 224, 1-(4-Fluoro-benzenesulfonyl)-pyrrolidine-2S-carboxylic acid [6-benzo[1,3]dioxol-5-yl-2-(4-chloro-phenylamino)-pyrimidin-4-ylmethyl]-amide] | > 10000
5 | O=C(NCc1cc(-c2ccc(Br)cc2)nc(N2CCC[C@H]2CO)n1)[C@@H]1CCCN1S(=O)(=O)c1ccc(F)cc1 [Example 302, 1-(4-Fluoro-benzenesulfonyl)-pyrrolidine-2S-carboxylic acid [6-(4-bromo-phenyl)-2-(2S-hydroxymethyl-pyrrolidin-1-yl)-pyrimidin-4-ylmethyl]-amide] | 8710
6 | CC(=O)c1ccc(S(=O)(=O)N2CCC[C@H]2C(=O)NCc2cc(-c3ccc(C(F)(F)F)cc3)nc(N3CCN(c4ccccc4F)CC3)n2)cc1 [Example 274, 1-(4-Acetyl-benzenesulfonyl)-pyrrolidine-2S-carboxylic acid [2-[4-(2-fluoro-phenyl)-piperazin-1-yl]-6-(4-trifluoromethyl-phenyl)-pyrimidin-4-ylmethyl]-amide] | > 10000
7 | CC(C)CN(CCO)c1nc(CNC(=O)[C@@H]2CCCN2S(=O)(=O)c2ccc(F)cc2)cc(-c2ccc(Br)cc2)n1 [Example 289, 1-(4-Fluoro-benzenesulfonyl)-pyrrolidine-2S-carboxylic acid {6-(4-bromo-phenyl)-2-[(2-hydroxy-ethyl)-isobutyl-amino]-pyrimidin-4-ylmethyl}-amide] | ~3470
8 | O=C(NCc1cc(-c2cccc(C(F)(F)F)c2)nc(N2CCN(c3ccccc3F)CC2)n1)[C@@H]1CCCN1S(=O)(=O)c1ccc(F)cc1 [Example 243, 1-(4-Fluoro-benzenesulfonyl)-pyrrolidine-2S-carboxylic acid [2-[4-(2-fluoro-phenyl)-piperazin-1-yl]-6-(3-trifluoromethyl-phenyl)-pyrimidin-4-ylmethyl]-amide] | 3800
9 | O=C(NCc1cc(-c2cccc(F)c2)nc(N2CCN(c3ccccc3F)CC2)n1)[C@@H]1CCCN1S(=O)(=O)c1ccc(F)cc1 [Example 246, 1-(4-Fluoro-benzenesulfonyl)-pyrrolidine-2S-carboxylic acid {6-(3-fluoro-phenyl)-2-[4-(2-fluoro-phenyl)-piperazin-1-yl]-pyrimidin-4-ylmethyl}-amide] | 2000
10 | C#CCNc1nc(CNC(=O)[C@@H]2CCCN2S(=O)(=O)c2ccc(F)cc2)cc(-c2ccc3c(c2)OCO3)n1 [Example 200, 1-(4-Fluoro-benzenesulfonyl)-pyrrolidine-2S-carboxylic acid (6-benzo[1,3]dioxol-5-yl-2-prop-2-ynylamino-pyrimidin-4-ylmethyl)-amide] | 3310
11 | CN1CCCN(c2nc(CNC(=O)[C@@H]3CCCN3S(=O)(=O)c3ccc(F)cc3)cc(-c3ccc(C(F)(F)F)cc3)n2)CC1 [Example 198, 1-(4-Fluoro-benzenesulfonyl)-pyrrolidine-2S-carboxylic acid [2-(4-methyl-[1,4]diazepan-1-yl)-6-(4-trifluoromethyl-phenyl)-pyrimidin-4-ylmethyl]-amide] | ~3020
12 | N#Cc1ccc(-c2cc(CNC(=O)[C@@H]3CCCN3S(=O)(=O)c3ccc(F)cc3)nc(N3CCN(c4ccccc4F)CC3)n2)cc1 [Example 229, 1-(4-Fluoro-benzenesulfonyl)-pyrrolidine-2-carboxylic acid {6-(4-cyano-phenyl)-2-[4-(2-fluoro-phenyl)-piperazin-1-yl]-pyrimidin-4-ylmethyl}-amide] | 1590
13 | O=C(NCc1cc(-c2ccc3c(c2)OCO3)nc(N2CCN(Cc3ccc4c(c3)OCO4)CC2)n1)[C@@H]1CCCN1S(=O)(=O)c1ccc(F)cc1 [Example 305, 1-(4-Fluoro-benzenesulfonyl)-pyrrolidine-2S-carboxylic acid [6-benzo[1,3]dioxol-5-yl-2-(4-benzo[1,3]dioxol-5-ylmethyl-piperazin-1-yl)-pyrimidin-4-ylmethyl]-amide] | ~5890

The next compounds have a lower IC50 than those just listed; values first:

Row | IC50 [nM] | SMILES
14 | 1170 | O=C(NCc1cc(-c2ccc(F)cc2)nc(N2CCN(c3ccccc3F)CC2)n1)[C@@H]1CCCN1S(=O)(=O)c1ccc(F)cc1 [Example 227, 1-(4-Fluoro-benzenesulfonyl)-pyrrolidine-2S-carboxylic acid {6-(4-fluoro-phenyl)-2-[4-(2-fluoro-phenyl)-piperazin-1-yl]-pyrimidin-4-ylmethyl}-amide]
15 | ~1150 | COc1ccc(CCNc2nc(CNC(=O)[C@@H]3CCCN3S(=O)(=O)c3ccc(F)cc3)cc(-c3ccc(C(F)(F)F)cc3)n2)cc1OC [Example 197, 1-(4-Fluoro-benzenesulfonyl)-pyrrolidine-2S-carboxylic acid [2-[2-(3,4-dimethoxy-phenyl)-ethylamino]-6-(4-trifluoromethyl-phenyl)-pyrimidin-4-ylmethyl]-amide]
16 | ~1100 | O=C(NCc1cc(-c2ccccc2Cl)nc(N2CCN(c3ccccc3F)CC2)n1)[C@@H]1CCCN1S(=O)(=O)c1ccc(F)cc1 [Example 242, 1-(4-Fluoro-benzenesulfonyl)-pyrrolidine-2-carboxylic acid {6-(2-chloro-phenyl)-2-[4-(2-fluoro-phenyl)-piperazin-1-yl]-pyrimidin-4-ylmethyl}-amide]
17 | ~1070 | O=C(NCc1cccc(-c2ccc(C(F)(F)F)cc2)n1)[C@@H]1CCCN1S(=O)(=O)c1ccc(Cl)s1 [Example 284, 1-(5-Chloro-thiophene-2-sulfonyl)-pyrrolidine-2S-carboxylic acid [6-(4-trifluoromethyl-phenyl)-pyridin-2-ylmethyl]-amide]
18 | 1020 | CCCCNc1nc(CNC(=O)[C@@H]2CCCN2S(=O)(=O)c2ccc(F)cc2)cc(-c2ccc(Br)cc2)n1 [Example 215, 1-(4-Fluoro-benzenesulfonyl)-pyrrolidine-2S-carboxylic acid [6-(4-bromo-phenyl)-2-butylamino-pyrimidin-4-ylmethyl]-amide]
19 | ~933 | Cc1cccc(C)c1-c1cc(CNC(=O)[C@@H]2CCCN2S(=O)(=O)c2ccc(F)cc2)nc(N2CCN(c3ccccc3F)CC2)n1 [Example 240, 1-(4-Fluoro-benzenesulfonyl)-pyrrolidine-2S-carboxylic acid {6-(2,6-dimethyl-phenyl)-2-[4-(2-fluoro-phenyl)-piperazin-1-yl]-pyrimidin-4-ylmethyl}-amide]
20 | 871 | O=C(NCc1cc(-c2ccc(Br)cc2)nc(N2CCOCC2)n1)[C@@H]1CCCN1S(=O)(=O)c1ccc(F)cc1 [Example 217, 1-(4-Fluoro-benzenesulfonyl)-pyrrolidine-2S-carboxylic acid [6-(4-bromo-phenyl)-2-morpholin-4-yl-pyrimidin-4-ylmethyl]-amide]
21 | 851 | O=C(NCc1cc(-c2ccc(Cl)cc2Cl)nc(N2CCN(c3ccccc3F)CC2)n1)[C@@H]1CCCN1S(=O)(=O)c1ccc(F)cc1 [Example 250, 1-(4-Fluoro-benzenesulfonyl)-pyrrolidine-2S-carboxylic acid {6-(2,4-dichloro-phenyl)-2-[4-(2-fluoro-phenyl)-piperazin-1-yl]-pyrimidin-4-ylmethyl}-amide]
22 | ~450 | O=C(NCc1cc(-c2ccc(C(F)(F)F)cc2)nc(NCCN2CCOCC2)n1)[C@@H]1CCCN1S(=O)(=O)c1ccc(F)cc1 [Example 315, 1-(4-Fluoro-benzenesulfonyl)-pyrrolidine-2S-carboxylic acid [2-(2-morpholin-4-yl-ethylamino)-6-(4-trifluoromethyl-phenyl)-pyrimidin-4-ylmethyl]-amide]
23 | ~372 | O=C(NCc1cc(-c2ccc(F)cc2F)nc(N2CCN(c3ccccc3F)CC2)n1)[C@@H]1CCCN1S(=O)(=O)c1ccc(F)cc1 [Example 233, 1-(4-Fluoro-benzenesulfonyl)-pyrrolidine-2S-carboxylic acid {6-(2,4-difluoro-phenyl)-2-[4-(2-fluoro-phenyl)-piperazin-1-yl]-pyrimidin-4-ylmethyl}-amide]
24 | 331 | O=C(NCc1cc(-c2ccc(C(F)(F)F)cc2)nc(N2CCN(c3ccc(F)cc3)CC2)n1)[C@@H]1CCCN1S(=O)(=O)c1ccc(F)cc1 [Example 304, 1-(4-Fluoro-benzenesulfonyl)-pyrrolidine-2S-carboxylic acid [2-[4-(4-fluoro-phenyl)-piperazin-1-yl]-6-(4-trifluoromethyl-phenyl)-pyrimidin-4-ylmethyl]-amide]
25 | ~33 | O=C(NCc1cc(-c2ccc(C(F)(F)F)cc2)nc(C(F)(F)F)n1)[C@@H]1CCCN1S(=O)(=O)c1ccc(F)cc1 [Example 184, 1-(4-Fluoro-benzenesulfonyl)-pyrrolidine-2S-carboxylic acid [2-trifluoromethyl-6-(4-trifluoromethyl-phenyl)-pyrimidin-4-ylmethyl]-amide]
